Experimental data as given in EP0068408A1 (priority 1981, dated 1983).
Values after ≈ are worked out from the molar mass of the structure shown. Where two headings read alike, the source gives them in different places.

Columns and labels:
[1] = Acute toxicity in mice (LD50); type: in vivo; settings: ddY male mice, suspended in 5% Arabic gum solution, observed for 7 days; for LD50 at 168 h: mouse, in vivo
Experimental: Experimental Example 7: Acute Toxicity in Mice
Each compound of the invention was suspended in 5% Arabic gum solution and given orally (p.o.) or intraperitoneally (i.p.) to groups of ten ddY male mice weighed from 24 to 26 g at the dosage volume of 10 ml/kg. […] LD50 was determined according to the method of Wilcoxon and Litchfield.

Rhino = assay: microbe, parasite or virus in culture; type: cell-based
Influenza A1 = assay: microbe, parasite or virus in culture; type: cell-based
Influenza B = assay: microbe, parasite or virus in culture; type: cell-based
influenza A0 virus = assay: animal or person; type: in vivo, mice; settings: for responders at 300 mg/kg / responders at 100 mg/kg / responders at 10 mg/kg / responders at 30 mg/kg: Mus musculus, 360 h, twice a day for 14 days, survivors at 15th day, read-out: Survival rate; for protective action against death due to the infection: result in words, Tables 3 and 4
Influenza A0 = assay: microbe, parasite or virus in culture; type: cell-based; settings: virus A = Influenza A0, MDCK, Vero and HEL cells, 2 or 3 days
ECHO = assay: microbe, parasite or virus in culture; type: cell-based
Coxsackie Type B5 = assay: microbe, parasite or virus in culture; type: cell-based; settings: virus G = Coxsackie Type B5
Parainfluenza Type 3 = assay: microbe, parasite or virus in culture; type: cell-based; settings: virus E = Parainfluenza Type 3
influenza virus A/WSN = assay: animal or person; type: in vivo, mice; settings: in Mus musculus, 360 h, read-out: Survival rate
[2] = ip, i.p., read-out: LD50 value, Intraperitoneal administration
[3] = po, p.o., read-out: LD50 value, Oral administration

Row | SMILES | LD50 at 168 h [1, 2] [mg/kg] | LD50 at 168 h [1, 3] [mg/kg] | MIC (Rhino) [µg/mL] | MIC (Influenza A1) [µg/mL] | MIC (Influenza B) [µg/mL] | responders at 300 mg/kg (influenza A0 virus; oral) [%] | responders at 100 mg/kg (influenza A0 virus; ip, intraperitoneal) [%] | MIC (Influenza A0) [µg/mL] | MIC (ECHO) [µg/mL] | MIC (Coxsackie Type B5) [µg/mL] | MIC (Parainfluenza Type 3) [µg/mL] | further results
1 | CNS(=O)(=O)c1cc(C(=O)O)ccc1Cl [Compound 1] |  |  |  |  |  |  |  |  |  |  |  | LD50 value, Intraperitoneal administration ([1]; i.p.): >1,000 mg/kg; LD50 value, Oral administration ([1]; p.o.): >3,000 mg/kg
2 | CCNS(=O)(=O)c1cc(C(=O)O)ccc1Cl [Compound 2] |  |  |  |  |  |  |  |  |  |  |  | LD50 value, Intraperitoneal administration ([1]; i.p.): >1,000 mg/kg; LD50 value, Oral administration ([1]; p.o.): >3,000 mg/kg
3 | CN(C)S(=O)(=O)c1cc(C(=O)O)ccc1Cl [Compound 3] |  |  |  |  |  |  |  |  |  |  |  | LD50 value, Intraperitoneal administration ([1]; i.p.): >1,000 mg/kg; LD50 value, Oral administration ([1]; p.o.): >3,000 mg/kg
4 | CONS(=O)(=O)c1cc(C(=O)O)ccc1Cl [Compound 4] | > 1000 | > 3000 | 300 (≈ 1130 µM) | 300 (≈ 1130 µM) | 100 (≈ 376 µM) | 40 | 50 | 30 (≈ 113 µM) | 300 (≈ 1130 µM) | 300 (≈ 1130 µM) | 300 (≈ 1130 µM) | 
5 | O=C(O)c1ccc(Cl)c(S(=O)(=O)NCCO)c1 [Compound 5] | > 1000 | > 3000 | 300 (≈ 1070 µM) | 300 (≈ 1070 µM) | 300 (≈ 1070 µM) | 50 | 40 | 30 (≈ 107 µM) | 300 (≈ 1070 µM) | 300 (≈ 1070 µM) | 100 (≈ 358 µM) | 
6 | CN(CCO)S(=O)(=O)c1cc(C(=O)O)ccc1Cl [Compound 6] | > 1000 | > 3000 | 300 (≈ 1020 µM) | 300 (≈ 1020 µM) | 300 (≈ 1020 µM) | 40 | 60 | 30 (≈ 102 µM) | 100 (≈ 340 µM) | 300 (≈ 1020 µM) | 300 (≈ 1020 µM) | 
7 | NNS(=O)(=O)c1cc(C(=O)O)ccc1Cl [Compound 7] | 746 | > 3000 | 300 (≈ 1200 µM) | 300 (≈ 1200 µM) | 100 (≈ 399 µM) | 60 |  | 10 (≈ 39.9 µM) | 300 (≈ 1200 µM) | 300 (≈ 1200 µM) | 300 (≈ 1200 µM) | responders at 100 mg/kg (influenza A0 virus; oral): 40%; responders at 10 mg/kg (influenza A0 virus; ip, intraperitoneal): 30%; responders at 30 mg/kg (influenza A0 virus; ip, intraperitoneal): 50%; protective action against death due to the infection (influenza A0 virus): extremely excellent activity
8 | CC(C)NS(=O)(=O)c1cc(C(=O)O)ccc1Cl [Compound 8] |  |  |  |  |  |  |  |  |  |  |  | LD50 value, Intraperitoneal administration ([1]; i.p.): >1,000 mg/kg; LD50 value, Oral administration ([1]; p.o.): >3,000 mg/kg
9 | O=C(O)c1ccc(Cl)c(S(=O)(=O)Nc2ccccc2)c1 [Compound 9] |  |  |  |  |  |  |  |  |  |  |  | LD50 value, Oral administration ([1]; p.o.): >3,000 mg/kg
10 | O=C(O)c1ccc(Cl)c(S(=O)(=O)NNc2ccc(Cl)nn2)c1 [Compound 10] | > 1000 | > 3000 | 300 (≈ 826 µM) | 300 (≈ 826 µM) | 300 (≈ 826 µM) | 40 | 40 | 30 (≈ 82.6 µM) | 100 (≈ 275 µM) | 300 (≈ 826 µM) | 300 (≈ 826 µM) | 
11 | O=C(O)c1ccc(Cl)c(S(=O)(=O)N2CCOCC2)c1 [Compound 11] |  |  |  |  |  |  |  |  |  |  |  | LD50 value, Intraperitoneal administration ([1]; i.p.): >1,000 mg/kg; LD50 value, Oral administration ([1]; p.o.): >3,000 mg/kg
12 | O=C(O)c1ccc(Cl)c(S(=O)(=O)N2CCCC2)c1 [Compound 12] | > 1000 | > 3000 | 300 (≈ 1040 µM) | 300 (≈ 1040 µM) | 300 (≈ 1040 µM) | 40 | 40 | 30 (≈ 104 µM) | 300 (≈ 1040 µM) | 100 (≈ 345 µM) | 300 (≈ 1040 µM) | 
13 | CN1CCN(S(=O)(=O)c2cc(C(=O)O)ccc2Cl)CC1 [Compound 13] | > 1000 | > 3000 | 300 (≈ 941 µM) | 100 (≈ 314 µM) | 100 (≈ 314 µM) | 70 |  | 10 (≈ 31.4 µM) | 300 (≈ 941 µM) | 100 (≈ 314 µM) | 300 (≈ 941 µM) | responders at 100 mg/kg (influenza A0 virus; oral): 50%; responders at 10 mg/kg (influenza A0 virus; ip, intraperitoneal): 40%; responders at 30 mg/kg (influenza A0 virus; ip, intraperitoneal): 50%; protective action against death due to the infection (influenza A0 virus): extremely excellent activity
14 | Nc1cc(Cl)c(S(N)(=O)=O)cc1C(=O)O [Compound 14] | > 1000 | > 3000 | 300 (≈ 1200 µM) | 100 (≈ 399 µM) | 300 (≈ 1200 µM) | 50 | 40 | 30 (≈ 120 µM) | 300 (≈ 1200 µM) | 300 (≈ 1200 µM) | 300 (≈ 1200 µM) | 
15 | NS(=O)(=O)c1cc(C(=O)O)cc([N+](=O)[O-])c1Cl [Compound 15] | > 1000 | > 3000 | 300 (≈ 1070 µM) | 300 (≈ 1070 µM) | 300 (≈ 1070 µM) | 50 | 50 | 30 (≈ 107 µM) | 100 (≈ 356 µM) | 300 (≈ 1070 µM) | 300 (≈ 1070 µM) | 
16 | NS(=O)(=O)c1cc(C(=O)O)c(F)cc1Cl [Compound 16] | > 1000 | > 3000 | 300 (≈ 1180 µM) | 300 (≈ 1180 µM) | 300 (≈ 1180 µM) | 50 | 50 | 30 (≈ 118 µM) | 300 (≈ 1180 µM) | 30 (≈ 118 µM) | 300 (≈ 1180 µM) | 
17 | NS(=O)(=O)c1cc(C(=O)O)c(Cl)cc1F [Compound 17] | > 1000 | > 3000 | 300 (≈ 1180 µM) | 300 (≈ 1180 µM) | 300 (≈ 1180 µM) | 40 | 40 | 30 (≈ 118 µM) | 300 (≈ 1180 µM) | 300 (≈ 1180 µM) | 300 (≈ 1180 µM) | 
18 | NS(=O)(=O)c1cc(C(=O)O)c(Br)cc1Cl [Compound 18] | > 1000 | > 3000 | 300 (≈ 954 µM) | 300 (≈ 954 µM) | 300 (≈ 954 µM) | 70 | 70 | 30 (≈ 95.4 µM) | 3 (≈ 9.54 µM) | 30 (≈ 95.4 µM) | 300 (≈ 954 µM) | responders at 100 mg/kg (influenza A0 virus; oral): 50%; responders at 30 mg/kg (influenza A0 virus; ip, intraperitoneal): 50%; protective action against death due to the infection (influenza A0 virus): extremely excellent activity
19 | NS(=O)(=O)c1cc(C(=O)O)c(Cl)cc1Cl [Compound 19] |  |  |  |  |  |  |  |  |  |  |  | LD50 value, Intraperitoneal administration ([1]; i.p.): >1,000 mg/kg; LD50 value, Oral administration ([1]; p.o.): >3,000 mg/kg; protective action against death due to the infection (influenza A0 virus): extremely excellent activity
20 | NS(=O)(=O)c1cc(C(=O)O)cc(Cl)c1Cl [Compound 20] | > 1000 | > 3000 | 30 (≈ 111 µM) | 100 (≈ 370 µM) | 100 (≈ 370 µM) | 80 | 70 | 10 (≈ 37 µM) | 100 (≈ 370 µM) | 300 (≈ 1110 µM) | 30 (≈ 111 µM) | responders at 30 mg/kg (influenza A0 virus; oral): 40%; responders at 100 mg/kg (influenza A0 virus; oral): 60%; responders at 10 mg/kg (influenza A0 virus; ip, intraperitoneal): 40%; responders at 30 mg/kg (influenza A0 virus; ip, intraperitoneal): 60%; protective action against death due to the infection (influenza A0 virus): extremely excellent activity
21 | N=C(N)NS(=O)(=O)c1cc(C(=O)O)c(Cl)cc1Cl [Compound 21] | 987 | > 3000 | 100 (≈ 320 µM) | 300 (≈ 961 µM) | 300 (≈ 961 µM) | 50 | 40 | 100 (≈ 320 µM) | 300 (≈ 961 µM) | 300 (≈ 961 µM) | 300 (≈ 961 µM) | 
22 | COC(=O)c1ccc(F)c(S(N)(=O)=O)c1 [Compound 28] |  |  |  |  |  |  |  |  |  |  |  | LD50 value, Intraperitoneal administration ([1]; i.p.): >1,000 mg/kg; LD50 value, Oral administration ([1]; p.o.): >3,000 mg/kg
23 | CCOC(=O)c1cc(S(N)(=O)=O)c(Cl)cc1Cl [Compound 32] | > 1000 | > 3000 |  |  |  |  |  |  |  |  |  | responders at 100 mg/kg (influenza virus A/WSN; po): 40%; responders at 300 mg/kg (influenza virus A/WSN; po): 50%
24 | CC(C)OC(=O)c1cc(S(N)(=O)=O)c(Cl)cc1Cl [Compound 34] | > 1000 | > 3000 |  |  |  |  |  |  |  |  |  | responders at 30 mg/kg (influenza virus A/WSN; ip): 30%; responders at 100 mg/kg (influenza virus A/WSN; ip): 40%
25 | CCC(C)OC(=O)c1cc(S(N)(=O)=O)c(Cl)cc1Cl (stereo not shown) [Compound 36] | > 1000 | > 3000 |  |  |  |  |  |  |  |  |  | responders at 30 mg/kg (influenza virus A/WSN; ip): 30%; responders at 100 mg/kg (influenza virus A/WSN; ip): 40%
26 | NS(=O)(=O)c1cc(C(=O)OC2CCCCC2)c(Cl)cc1Cl [Compound 38] | > 1000 | > 3000 |  |  |  |  |  |  |  |  |  | responders at 30 mg/kg (influenza virus A/WSN; ip): 30%; responders at 100 mg/kg (influenza virus A/WSN; ip): 40%
27 | NS(=O)(=O)c1cc(C(=O)OCc2ccccc2)c(Cl)cc1Cl [Compound 39] | > 1000 | > 3000 |  |  |  |  |  |  |  |  |  | responders at 100 mg/kg (influenza virus A/WSN; po): 30%; responders at 300 mg/kg (influenza virus A/WSN; po): 40%
28 | CCOC(=O)c1cc(S(N)(=O)=O)c(F)cc1Cl [Compound 42] | > 1000 | > 3000 |  |  |  |  |  |  |  |  |  | responders at 100 mg/kg (influenza virus A/WSN; po): 40%; responders at 300 mg/kg (influenza virus A/WSN; po): 50%
